EPA's ToxValDB 9.5
Values joined by “and” are separate entries in the source; they are usually repeats but may differ in a detail not shown here. Equal entries are not always repeated.

Legend:
Rattus norvegicus [1] = system: Rattus norvegicus
Rattus norvegicus [2] = system: Rattus norvegicus; remark: listed apart in the source
[3] = acute, oral, gavage, Sprague-Dawley
[4] = reproduction developmental, oral, gavage, F, Crl:CD(SD), generation: P0, P0: Endocrine: Adrenal: Adrenal Gland Histopathology + P0: Endocrine: Adrenal: Adrenal Gland Weight, Absolute + P0: Endocrine: Adrenal: …
[5] = reproduction developmental, oral, gavage, F, Crl:CD(SD), generation: P0, P0: Hematologic: Multi-Organ: Activated Partial Thromboplastin Time (APTT) + P0: Hematologic: Multi-Organ: Hematocrit (HCT) + P0: …
[6] = reproduction developmental, oral, gavage, M, Crl:CD(SD), generation: P0, P0: Endocrine: Adrenal: Adrenal Gland Histopathology + P0: Endocrine: Adrenal: Adrenal Gland Weight, Absolute + P0: Endocrine: Adrenal: …
[7] = reproduction developmental, oral, gavage, M, Crl:CD(SD), generation: P0, P0: Hematologic: Multi-Organ: Activated Partial Thromboplastin Time (APTT) + P0: Hematologic: Multi-Organ: Hematocrit (HCT) + P0: …
[8] = short-term, duration: 10 days, oral, gavage, M, Sprague-Dawley, Endocrine: Multi-Organ: Follicle Stimulating Hormone (FSH), Serum + Endocrine: Multi-Organ: Leuteinizing Hormone (LH), Serum + Endocrine: …
[9] = short-term, duration: 10 days, oral, gavage, M, Sprague-Dawley, Endocrine: Multi-Organ: Testosterone (T), Serum + Reproductive: Epididymis: Epididymis Weight, Absolute + Reproductive: Epididymis: …
[10] = short-term, duration: 28 days, oral, gavage, F, Sprague-Dawley, Adrenal: Adrenal Gland Weight, Absolute + Adrenal: Adrenal Gland Weight, Relative
[11] = short-term, duration: 28 days, oral, gavage, M/F, Sprague-Dawley, Liver: Liver Histopathology
[12] = short-term, duration: 28 days, oral, gavage, M, Sprague-Dawley, Adrenal: Adrenal Gland Weight, Absolute + Adrenal: Adrenal Gland Weight, Relative

**Q.** O=C([O-])CCCCCCCC(=O)[O-].[Li+].[Li+] [Nonanedioic acid, dilithium salt] was tested. Which NOAEL (Rattus norvegicus [1]; subchronic, duration: 90 days, oral, gavage, Sprague-Dawley) did it give?
**A.** 1000 mg/kg-day

**Q.** OCCN1CCNCC1 [1-Piperazineethanol] was tested. Which LD50 (Rattus norvegicus [1]; acute, oral, gavage) did it give?
**A.** 2000 mg/kg

**Q.** What about the NOAEL (Rattus norvegicus [1]; short-term, duration: 7 days, oral, diet, F, Wistar) of the same compound?
**A.** 1610 mg/kg-day

**Q.** And the NOAEL (Rattus norvegicus [1]; short-term, duration: 7 days, oral, diet, M, Wistar)?
**A.** 3720 mg/kg-day

**Q.** CCN(CC)c1ccc(C(=O)c2ccccc2C(=O)O)c(O)c1 [2-[4-(Diethylamino)-2-hydroxybenzoyl]benzoic acid] was tested. Which LD50 (Rattus norvegicus [1]; [3]) did it give?
**A.** > 5000 mg/kg

**Q.** With O=C(O)C(F)(F)C(F)(F)C(F)(F)C(F)(F)C(F)(F)C(F)(F)C(F)(F)C(F)(F)C(F)(F)C(F)(F)C(F)(F)C(F)(F)C(F)(F)F [Perfluorotetradecanoic acid] as the compound, how does the NOAEL (Rattus norvegicus [2]; developmental, oral, gavage, F, Crl:CD(SD), generation: F1, F1: Developmental: Whole Body: Body Weight, Birth + F1: Developmental: Whole Body: Body Weight, Pup, PND 1 + F1: Developmental: Whole Body: …) read?
**A.** 1 mg/kg-day and 3 mg/kg-day

**Q.** What about the NOAEL (Rattus norvegicus [2]; developmental, oral, gavage, M/F, Crl:CD(SD), generation: F1, F1: Developmental: Whole Body: Litter Size + F1: Developmental: Whole Body: Male Pups per Pups Sexed + F1: Developmental: Whole Body: Mean …) of the same compound?
**A.** 1 mg/kg-day and 3 mg/kg-day

**Q.** What about the NOAEL (Rattus norvegicus [2]; developmental, oral, gavage, M, Crl:CD(SD), generation: F1, F1: Developmental: Whole Body: Body Weight, Birth + F1: Developmental: Whole Body: Body Weight, Pup, PND1 + F1: Developmental: Whole Body: …) of the same compound?
**A.** 1 mg/kg-day and 3 mg/kg-day

**Q.** And the LOAEL (Rattus norvegicus [2]; reproduction developmental, oral, gavage, F, Crl:CD(SD), generation: P0, P0: Cardiovascular: Heart: Heart Histopathology + P0: Cardiovascular: Heart: Heart Weight, Absolute + P0: Cardiovascular: Heart: Heart …)?
**A.** 3 mg/kg-day

**Q.** And the LOAEL (Rattus norvegicus [2]; [4])?
**A.** 3 mg/kg-day

**Q.** What about the NOAEL (Rattus norvegicus [2]; [4]) of the same compound?
**A.** 1 mg/kg-day

**Q.** And the LOAEL (Rattus norvegicus [2]; [5])?
**A.** 10 mg/kg-day

**Q.** What about the NOAEL (Rattus norvegicus [2]; [5]) of the same compound?
**A.** 3 mg/kg-day

**Q.** What about the LOAEL (Rattus norvegicus [2]; reproduction developmental, oral, gavage, M, Crl:CD(SD), generation: P0, P0: Cardiovascular: Heart: Heart Histopathology + P0: Cardiovascular: Heart: Heart Weight, Absolute + P0: Cardiovascular: Heart: Heart …) of the same compound?
**A.** 3 mg/kg-day

**Q.** What about the LOAEL (Rattus norvegicus [2]; [6]) of the same compound?
**A.** 3 mg/kg-day

**Q.** What about the NOAEL (Rattus norvegicus [2]; [6]) of the same compound?
**A.** 1 mg/kg-day

**Q.** What about the LOAEL (Rattus norvegicus [2]; [7]) of the same compound?
**A.** 10 mg/kg-day

**Q.** What about the NOAEL (Rattus norvegicus [2]; [7]) of the same compound?
**A.** 3 mg/kg-day

**Q.** What about the LOAEL (Rattus norvegicus [2]; [8]) of the same compound?
**A.** 20 mg/kg-day

**Q.** What about the NOAEL (Rattus norvegicus [2]; [8]) of the same compound?
**A.** 10 mg/kg-day

**Q.** What about the NOAEL (Rattus norvegicus [2]; short-term, duration: 10 days, oral, gavage, M, Sprague-Dawley, Endocrine: Multi-Organ: Follicle Stimulating Hormone (FSH), Serum + Endocrine: Multi-Organ: Leuteinizing Hormone (LH), Serum + Whole Body: …) of the same compound?
**A.** 20 mg/kg-day

**Q.** What about the LOAEL (Rattus norvegicus [2]; [9]) of the same compound?
**A.** 20 mg/kg-day

**Q.** And the NOAEL (Rattus norvegicus [2]; [9])?
**A.** 10 mg/kg-day

**Q.** CCCCCCC1C=CC(CCCCCCCC(=O)O)CC1C(=O)O (stereo not given) [5(6)-Carboxy-4-hexyl-2-cyclohexene-1-octanoic acid] was tested. Which LD50 (Rattus norvegicus [1]; [3]) did it give?
**A.** 6180 mg/kg

**Q.** Which LD50 (Rattus norvegicus [1]; acute, dermal, semiocclusive, Sprague-Dawley) does the source give for CCN(CC)c1ccc2c(c1)Oc1cc(C)c(Nc3ccc(C)cc3C)cc1C21OC(=O)c2ccccc21 (stereo not given) here?
**A.** > 2000 mg/kg

**Q.** What about the LD50 (Rattus norvegicus [1]; [3]) of the same compound?
**A.** > 10000 mg/kg

**Q.** CC(CN)CCCN (stereo not given) [2-Methylpentanediamine] was tested. Which LC50 (Rattus norvegicus [1]; acute, inhalation, CRL:CD BR) did it give?
**A.** 4.1 µg/mL and 2.9 µg/mL

**Q.** And the LD50 (Rattus norvegicus [1]; acute, oral, gavage, Crl:CD(SD))?
**A.** 1690 mg/kg

**Q.** And the NOAEL (Rattus norvegicus [1]; short-term, duration: 28 days, oral, diet, F, CRL:CD BR)?
**A.** 3000 ppm

**Q.** What about the NOAEL (Rattus norvegicus [1]; short-term, duration: 28 days, oral, diet, M, CRL:CD BR) of the same compound?
**A.** 10000 ppm

**Q.** For COc1ccccc1NC(=O)CC(C)=O [N-(2-Methoxyphenyl)-3-oxobutanamide], which LD50 (Rattus norvegicus [1]; acute, oral, gavage, Crj:CD) is on record?
**A.** 1640 mg/kg

**Q.** For CCN(CC#N)c1cccc(C)c1 [2-(Ethyl(3-methylphenyl)amino)acetonitrile], which NOAEL (Rattus norvegicus [1]; developmental, duration: 38 days, oral, gavage, Sprague-Dawley) is on record?
**A.** 150 mg/kg-day

**Q.** What about the NOAEL (Rattus norvegicus [1]; reproduction developmental, duration: 38 days, oral, gavage, Sprague-Dawley, generation: F0) of the same compound?
**A.** 25 mg/kg-day

**Q.** And the NOAEL (Rattus norvegicus [1]; reproduction developmental, duration: 38 days, oral, gavage, Sprague-Dawley, generation: F1)?
**A.** 150 mg/kg-day

**Q.** For CC(C)(c1ccccc1)c1ccc(O)cc1 [4-Cumylphenol], which LD50 (Rattus norvegicus [1]; acute, oral, Sprague-Dawley) is on record?
**A.** 1770 mg/kg

**Q.** What about the LD50 (Rattus norvegicus [1]; [3]) of the same compound?
**A.** 1770 mg/kg

**Q.** CCOC(F)(C(F)(F)C(F)(F)C(F)(F)F)C(F)(C(F)(F)F)C(F)(F)F (stereo not given) [3-Ethoxyperfluoro(2-methylhexane)] was tested. Which NOAEL (Rattus norvegicus [2]; developmental, duration: 26 days, parental, M/F, Sprague-Dawley, generation: F1, F1: Whole Body: Clinical Observations + F1: Whole Body: Litter Size + F1: Whole Body: Necropsy Appeared Normal + F1: Whole Body: Pup Body …) did it give?
**A.** 1000 mg/kg-day

**Q.** And the NOAEL (Rattus norvegicus [2]; reproduction developmental, duration: 2 weeks, oral, gavage, F, Sprague-Dawley, generation: P0, P0: Ovary: Ovary, Non-Neoplastic Lesions + P0: Uterus: Estrous Cycle + P0: Uterus: Implantation + P0: Whole Body: Clinical Observations + P0…)?
**A.** 1000 mg/kg-day

**Q.** What about the NOAEL (Rattus norvegicus [2]; reproduction developmental, duration: 2 weeks, oral, gavage, M, Sprague-Dawley, generation: P0, P0: Epididymis: Epididymis Weight, Absolute + P0: Epididymis: Epididymis Weight, Relative + P0: Epididymis: Epididymis, Non-Neoplastic …) of the same compound?
**A.** 1000 mg/kg-day

**Q.** What about the LOAEL (Rattus norvegicus [2]; [10]) of the same compound?
**A.** 1000 mg/kg-day

**Q.** What about the NOAEL (Rattus norvegicus [2]; [10]) of the same compound?
**A.** 200 mg/kg-day

**Q.** What about the NOAEL (Rattus norvegicus [2]; short-term, duration: 28 days, oral, gavage, F, Sprague-Dawley, Ovary: Ovary Weight, Absolute + Ovary: Ovary Weight, Relative + Spleen: Spleen Weight, Absolute) of the same compound?
**A.** 1000 mg/kg-day

**Q.** What about the LOAEL (Rattus norvegicus [2]; short-term, duration: 28 days, oral, gavage, F, Sprague-Dawley, Spleen: Spleen Weight, Relative) of the same compound?
**A.** 40 mg/kg-day

**Q.** And the NOAEL (Rattus norvegicus [2]; short-term, duration: 28 days, oral, gavage, M/F, Sprague-Dawley, Blood: Clinical Chemistry, Unspecified + Kidney: Urinalysis, Unspecified + Whole Body: Body Weight Change + Whole Body: Clinical …)?
**A.** 1000 mg/kg-day

**Q.** What about the LOAEL (Rattus norvegicus [2]; [11]) of the same compound?
**A.** 1000 mg/kg-day

**Q.** And the NOAEL (Rattus norvegicus [2]; [11])?
**A.** 200 mg/kg-day

**Q.** And the LOAEL (Rattus norvegicus [2]; [12])?
**A.** 1000 mg/kg-day

**Q.** And the NOAEL (Rattus norvegicus [2]; [12])?
**A.** 200 mg/kg-day

**Q.** And the LOAEL (Rattus norvegicus [2]; short-term, duration: 28 days, oral, gavage, M, Sprague-Dawley, Spleen: Spleen Weight, Absolute + Spleen: Spleen Weight, Relative)?
**A.** 40 mg/kg-day

**Q.** Which LD50 (Rattus norvegicus [1]; [3]) does the source give for CCCCCCCC/C=C\CCCCCCCC#N [(Z)-9-Octadecenenitrile] here?
**A.** > 5000 mg/kg
